Tested on: NHBE cells
Experiment: Biolog metabolic array: substrate use by NHBE cells with or without CA09 infection
Format: cell-based, human
Conditions: for Substrate use, 590 nm absorbance normalized to zero hour, 0 hr: Biolog PMM2, 0 hr; for Substrate use, 590 nm absorbance normalized to zero hour, 1 hr: Biolog PMM2, 1 hr; for Substrate use, 590 nm absorbance normalized to zero hour, 5 hr: Biolog PMM2, 5 hr; for Substrate use, 590 nm absorbance normalized to zero hour, 7 hr: Biolog PMM2, 7 hr
[1] = Control (uninfected) NHBE cells
[2] = Virus (CA09, MOI 1) infected NHBE cells
[3] = Virus (CA09-infected, MOI 1) NHBE cells
[4] = Virus (CA09-infected NHBE cells, MOI 1)
[5] = Virus: CA09-infected NHBE cells, MOI 1, Biolog PMM2

| Structure (SMILES) | 590 nm absorbance normalized to zero hour (substrate use), 1 hr [1] | 590 nm absorbance normalized to zero hour (substrate use), 2 hr [1] | 590 nm absorbance normalized to zero hour (substrate use), 3 hr [1] | 590 nm absorbance normalized to zero hour (substrate use), 4 hr [1] | 590 nm absorbance normalized to zero hour (substrate use), 6 hr [1] | 590 nm absorbance normalized to zero hour (substrate use), 8 hr [1] | 590 nm absorbance normalized to zero hour (substrate use), 9 hr [1] | 590 nm absorbance normalized to zero hour (substrate use), 10 hr [1] | 590 nm absorbance normalized to zero hour (substrate use), 11 hr [1] | Substrate use, 590 nm absorbance normalized to zero hour, 1 hr [1] | Substrate use, 590 nm absorbance normalized to zero hour, 5 hr [1] | Substrate use, 590 nm absorbance normalized to zero hour, 7 hr [1] | 590 nm absorbance normalized to zero hour (substrate use), 1 hr [4] | 590 nm absorbance normalized to zero hour (substrate use), 2 hr [4] | 590 nm absorbance normalized to zero hour (substrate use), 3 hr [4] | 590 nm absorbance normalized to zero hour (substrate use), 4 hr [4] | 590 nm absorbance normalized to zero hour (substrate use), 5 hr [4] | 590 nm absorbance normalized to zero hour (substrate use), 6 hr [4] | 590 nm absorbance normalized to zero hour (substrate use), 7 hr [4] | 590 nm absorbance normalized to zero hour (substrate use), 8 hr [4] | further results |
| --- | --- | --- | --- | --- | --- | --- | --- | --- | --- | --- | --- | --- | --- | --- | --- | --- | --- | --- | --- | --- | --- |
| O=P(O)(O)O[C@H]1O[C@H](CO)[C@@H](O)[C@H](O)[C@H]1O [D-Glucose-1-Phosphate] | 1.01 | 1.31 | 1.24 | 1.16 | 0.33 | 1.03 | 1.09 | 1.06 | 0.93 | 1.01 | 1.12 | 1.10 | – | – | – | – | – | – | – | – | 590 nm absorbance normalized to zero hour (substrate use), 0 hr [1]: 1.00; Substrate use, 590 nm absorbance normalized to zero hour, 0 hr [1]: 1.00; Substrate use, 590 nm absorbance normalized to zero hour, 0 hr [2]: 1.00; Substrate use, 590 nm absorbance normalized to zero hour, 1 hr [2]: 1.74; Substrate use, 590 nm absorbance normalized to zero hour, 5 hr [2]: 3.94; Substrate use, 590 nm absorbance normalized to zero hour, 7 hr [2]: 4.56; 590 nm absorbance normalized to zero hour (substrate use), 0 hr [3]: 1.00; 590 nm absorbance normalized to zero hour (substrate use), 1 hr [3]: 1.74; 590 nm absorbance normalized to zero hour (substrate use), 2 hr [3]: 2.39; 590 nm absorbance normalized to zero hour (substrate use), 3 hr [3]: 2.86; 590 nm absorbance normalized to zero hour (substrate use), 4 hr [3]: 3.20; 590 nm absorbance normalized to zero hour (substrate use), 6 hr [3]: 4.34; 590 nm absorbance normalized to zero hour (substrate use), 8 hr [3]: 4.91; 590 nm absorbance normalized to zero hour (substrate use), 9 hr [3]: 5.77; 590 nm absorbance normalized to zero hour (substrate use), 10 hr [3]: 5.49; 590 nm absorbance normalized to zero hour (substrate use), 11 hr [3]: 6.50 |
| CC(=O)C(C)O (stereo not drawn) [3-Hydroxy 2-Butanone] | 1.49 | 1.75 | 1.64 | 1.71 | 0.48 | 1.86 | 7.44 | 7.39 | 2.14 | 1.49 | 2.01 | 1.80 | 1.24 | 1.65 | 2.42 | 2.37 | 2.39 | 2.28 | 2.37 | 2.01 | 590 nm absorbance normalized to zero hour (substrate use), 9 hr [4]: 2.18; 590 nm absorbance normalized to zero hour (substrate use), 10 hr [4]: 2.16; 590 nm absorbance normalized to zero hour (substrate use), 11 hr [4]: 2.35; 590 nm absorbance normalized to zero hour (substrate use), 1 hr [5]: 1.24; 590 nm absorbance normalized to zero hour (substrate use), 2 hr [5]: 1.65; 590 nm absorbance normalized to zero hour (substrate use), 3 hr [5]: 2.42; 590 nm absorbance normalized to zero hour (substrate use), 4 hr [5]: 2.37; 590 nm absorbance normalized to zero hour (substrate use), 5 hr [5]: 2.39; 590 nm absorbance normalized to zero hour (substrate use), 6 hr [5]: 2.28; 590 nm absorbance normalized to zero hour (substrate use), 7 hr [5]: 2.37; 590 nm absorbance normalized to zero hour (substrate use), 8 hr [5]: 2.01; 590 nm absorbance normalized to zero hour (substrate use), 9 hr [5]: 2.18; 590 nm absorbance normalized to zero hour (substrate use), 10 hr [5]: 2.16; 590 nm absorbance normalized to zero hour (substrate use), 11 hr [5]: 2.35 |
| O=C(CO)[C@@H](O)[C@H](O)[C@H](O)CO [D-Fructose] | 2.31 | 2.22 | 1.77 | 2.00 | 1.51 | 3.38 | 4.01 | 3.99 | 4.24 | 2.31 | 2.59 | 3.18 | 0.44 | 0.58 | 0.71 | 0.79 | 1.00 | 1.09 | 1.17 | 1.26 | 590 nm absorbance normalized to zero hour (substrate use), 9 hr [4]: 1.43; 590 nm absorbance normalized to zero hour (substrate use), 10 hr [4]: 1.52; 590 nm absorbance normalized to zero hour (substrate use), 11 hr [4]: 1.70; 590 nm absorbance normalized to zero hour (substrate use), 1 hr [5]: 0.44; 590 nm absorbance normalized to zero hour (substrate use), 2 hr [5]: 0.58; 590 nm absorbance normalized to zero hour (substrate use), 3 hr [5]: 0.71; 590 nm absorbance normalized to zero hour (substrate use), 4 hr [5]: 0.79; 590 nm absorbance normalized to zero hour (substrate use), 5 hr [5]: 1.00; 590 nm absorbance normalized to zero hour (substrate use), 6 hr [5]: 1.09; 590 nm absorbance normalized to zero hour (substrate use), 7 hr [5]: 1.17; 590 nm absorbance normalized to zero hour (substrate use), 8 hr [5]: 1.26; 590 nm absorbance normalized to zero hour (substrate use), 9 hr [5]: 1.43; 590 nm absorbance normalized to zero hour (substrate use), 10 hr [5]: 1.52; 590 nm absorbance normalized to zero hour (substrate use), 11 hr [5]: 1.70 |
